Laboratory results from patent US9359371B2, “Bicyclic substituted pyrimidine compounds” (Xuanzhu Pharma Co., Ltd., priority 2012, dated 2016).
Where two headings read alike, the source gives them in different places.

Key:
bovine retinal PDE-6 [1] = biological target: bovine retinal PDE-6 (Bos taurus (Bovine), UniProt P11541+P23439); test: PDE-6 enzyme assay, [3H]cGMP; assay type: biochemical
Experimental: (§1) Experiment 3: Measurement of Enzyme Activity on PDE-6 Enzyme In Vitro
(§2) Source of enzyme: PDE-6, bovine retinal PDE-6
(§3) Method: The test compound or solvent was incubated at 25° C. for 15 min with enzyme solution (0.2 μg/mL) in Tris-HCl buffer of pH 7.5. 100 μM cGMP and 0.03 μM [^3H] cGMP were then added to activate the reaction. The mixture was incubated for 20 min. The reaction was stopped at 100° C. By addition of snake venom nucleotidase, the product [^3H] GMP was converted into [^3H] Guanosine, which was separated with AG1-X2 resin. The amount of [^3H] Guanosine was measured.

[2] = tested on: length of New Zealand rabbit's penis; test: Pharmacological activity in vivo (intravenous injection), rabbit penis length; design: species or system New Zealand rabbits; conditions: iv 10 mg/kg, sodium nitroprussiate 0.2 mg/kg iv 5 min after, 0-120 min
Experimental: Experiment 5: Assay of Pharmacological Activity In Vivo (Intravenous Injection)
After accommodating with the environment, the New Zealand rabbits were grabbed everyday. When the rabbits were accustomed to the repeated grabbing, drug administration was began. The animals were randomly divided into groups by weight. The test compounds were separately dissolved in menstruum. […] The corresponding test compounds were injected into the auricular veins of animals of each group. The dosage of the compounds in Table 5 was 10 mg/kg, and the administration volume was 1 mL/kg. The dosage of the compounds in Table 6 was 10 mg/kg, and the administration volume was 2 mL/kg. 0.2 mg/kg sodium nitroprussiate was intravenously injected into the rabbits 5 min after the administration of the test compounds, with the administration volume of 0.5 mL/kg.
The length of the rabbit's penis was measured with a digital caliper before and 10, 15, 30, 50, 60, 90 and 120 min after the administration. Touch of the rabbit's penis by the caliper was avoided during the measurements.

[3] = biological target: PDE-5 enzyme (human blood platelets) (Homo sapiens (Human), UniProt O76074); test: PDE-5 enzyme assay, [3H]cGMP; assay type: biochemical
[4] = tested on: length of New Zealand rabbit's penis; test: Pharmacological activity in vivo (oral administration, 70 mg/kg, with SNP), rabbit penis length; design: species or system New Zealand rabbits; conditions: Table 8; oral 70 mg/kg; SNP 0.2 mg/kg iv 60 min after; 0-180 min
Experimental: Experiment 7: Assay of Pharmacological Activity In Vivo (Oral Administration)
After accommodating with the environment, the New Zealand rabbits were grabbed everyday. When the rabbits were accustomed to the repeated grabbing, drug administration was began. The animals were randomly divided into groups by weight, with 6 rabbits of each group. […] The corresponding test compounds were orally administrated to animals of each group. The dosage was 70 mg/kg, and the administration volume was 1 mL/kg. SNP (0.2 mg/kg, 0.5 mL/kg) was injected into the auricular veins of rabbits 60 min after the administration of the test compounds. The length of the rabbit's penis was measured with a digital caliper before and 10, 15, 30, 50, 60, 65, 70, 75, 90, 110, 120 and 180 min after the administration. Touch of the rabbit's penis by the caliper was avoided during the measurements.

[5] = tested on: length of New Zealand rabbit's penis; test: Pharmacological activity in vivo (oral administration, 100 mg/kg), rabbit penis length; design: species or system New Zealand rabbits; conditions: Table 7; oral 100 mg/kg; 0-240 min
Source text: Experiment 6: Assay of Pharmacological Activity In Vivo (Oral Administration)
After accommodating with the environment, the New Zealand rabbits were grabbed everyday. When the rabbits were accustomed to the repeated grabbing, drug administration was began. The animals were randomly divided into groups by weight, with 6 rabbits of each group. The test compounds were separately dissolved in menstruum. […] The corresponding test compounds were orally administrated to animals of each group. The dosage was 100 mg/kg, and the administration volume was 1 mL/kg. The length of the rabbit's penis was measured with a digital caliper before and 5, 10, 15, 30, 50, 60, 90, 120, 180 and 240 min after the administration. Touch of the rabbit's penis by the caliper was avoided during the measurements.

[6] = Pharmacokinetics (PK) in SD rats; assay type: in vivo; conditions: rat; for bioavailability: read-out: F % (absolute bioavailability)
bovine retinal PDE-6 [7] = test: PDE-6 enzyme assay, [3H]cGMP; assay type: biochemical; conditions: selectivity >70 called high
Experimental: as §1, §2, §3

hERG channel = hERG channel (Homo sapiens (Human), UniProt Q12809); test: hERG potassium channel whole-cell patch clamp on CHO-K1 cell line
Source text: Experiment 8: Detection of Inhibitory Effect of the Compounds of the Present Invention on hERG Potassium Channel by the Patch Clamp Method
Rapidly activated human delayed rectifying outward potassium current (IKr) is mainly mediated by hERG ion channel and is involved in repolarization of human cardiac muscle cell. Clinically, blocking of the current by a drug is the main cause of QT interval prolongation syndrome, acute arrhythmia and even sudden death. The main purpose of the experiment is to test the blocking effect of the compounds of the present invention on hERG channel, and to determine the half maximal inhibitory concentration (IC50) of the compounds.
The experiment mainly included: (1) recording hERG current by patch clamp technique on CHO-K1 cell line which stably expressed hERG channel; (2) calculating the Inhibition rate of each concentration according to hERG tail current; (3) testing each compound at 5 concentrations to calculate IC50; (4) testing 2 cells at each concentration; (5) a positive control.
The structures and synthesis of Compound 88 (WO-88) and Compound 93 (WO-93) as disclosed in WO200119802A were described in Example 55 and Example 56.
Drug for positive control: Amitriptyline hydrochloride (Sigma-Aldrich, an international standard blocker for hERG channel)
Pippette Solution (in mM): KCl 120, KOH 31.25, CaCl2 5.374, MgCl2 1.75, Ethylene glycol-bis(β-aminoethyl ether)-N,N,N′,N′-tetraacetic acid (EGTA) 10, HEPES 10, Na2-ATP 4, adjusted to a pH of 7.2 with 1N potassium hydroxide; adjusted to an osmotic pressure of 280-290 mOsm; preserved at −20° C. after filtration.
Preparation of compounds: Some of the compounds of the present invention and Amitriptyline hydrochloride as the positive control drug were separately dissolved in 100% DMSO (Merck, 61850125001730), then prepared into stock solutions of 30 mM. Before the experiment, the above stock solutions were diluted with DMSO to a concentration of 1000-fold of the experimental concentration. Then the diluted solutions were further diluted with extracellular solution by 1:1000 to the required experimental concentration. The final concentration of DMSO in the extracellular solution was kept as 0.1%.
Stable cell line CHO-hERG was purchased from AVIVA Company. The hERG current on the cell line was recorded. For the purpose of quality control, the smallest seal resistance was no less than 500 MΩ, and the hERG current was no less than 0.4 nA.
The hERG current was recorded by a whole-cell patch clamp technique. Cell suspension was added into a 35-mm culture dish. The culture dish was placed on the objective table of an inverted microscope. Upon cell attachment, perfusion was conducted with the extracellular solution at a flow rate of 1-2 mL/min.
Glass microelectrode with the pipette tip resistance of 2-5 MΩ was controlled by a microelectrode puller via a two-step process. After the whole-cell record was set up, the clamp potential was kept at −80 mV. The cell was depolarized to +60 mV by applying a voltage stimulus, and then repolarized to −50 mV to obtain the hERG tail current. Recordation was conducted after the current was stable. The extracellular perfusion was started from the lowest concentration, with 5-10 min for each concentration until the current was stable, and then conducted with the next concentration.
Stimulus payment and signal collection were performed by A/D-D/A conversion using Digidata 1440 (Molecular Devices) and pCLAMP software (Version 10.2, Molecular Devices). Signal amplification was performed on a patch clamp amplifier (Multiclamp 700B, Molecular Devices), with a filter of 1 KHz. Further data analysis and curve fitting were conducted by Clampfit (version 10.2, Molecular Devices) and Prism. The data were presented as mean value±standard deviation.
In the process of data analysis, the peak value and the baseline of the tail current were corrected when determining the blocking effect on hERG.

PDE-5A enzyme = PDE-5A enzyme (Homo sapiens (Human), UniProt O76074); test: Caliper Mobility-Shift PDE-5A Assay; assay type: biochemical; conditions: Table 1; Avanafil value is the control
[8] = in human; cited from earlier work
PDE-6 = conditions: cited from earlier work
PDE-11 = PDE-11 (Homo sapiens (Human), UniProt Q9HCR9); conditions: cited from earlier work
[9] = Table 4-1, read-out: PDE-6 (IC50 nM)
[10] = Table 2, human blood platelet enzyme, read-out: IC50 on PDE-5
[11] = SD, plasma, po, intragastric administration, 2 mg/kg

Sequence of hERG channel (Q12809 whole entry): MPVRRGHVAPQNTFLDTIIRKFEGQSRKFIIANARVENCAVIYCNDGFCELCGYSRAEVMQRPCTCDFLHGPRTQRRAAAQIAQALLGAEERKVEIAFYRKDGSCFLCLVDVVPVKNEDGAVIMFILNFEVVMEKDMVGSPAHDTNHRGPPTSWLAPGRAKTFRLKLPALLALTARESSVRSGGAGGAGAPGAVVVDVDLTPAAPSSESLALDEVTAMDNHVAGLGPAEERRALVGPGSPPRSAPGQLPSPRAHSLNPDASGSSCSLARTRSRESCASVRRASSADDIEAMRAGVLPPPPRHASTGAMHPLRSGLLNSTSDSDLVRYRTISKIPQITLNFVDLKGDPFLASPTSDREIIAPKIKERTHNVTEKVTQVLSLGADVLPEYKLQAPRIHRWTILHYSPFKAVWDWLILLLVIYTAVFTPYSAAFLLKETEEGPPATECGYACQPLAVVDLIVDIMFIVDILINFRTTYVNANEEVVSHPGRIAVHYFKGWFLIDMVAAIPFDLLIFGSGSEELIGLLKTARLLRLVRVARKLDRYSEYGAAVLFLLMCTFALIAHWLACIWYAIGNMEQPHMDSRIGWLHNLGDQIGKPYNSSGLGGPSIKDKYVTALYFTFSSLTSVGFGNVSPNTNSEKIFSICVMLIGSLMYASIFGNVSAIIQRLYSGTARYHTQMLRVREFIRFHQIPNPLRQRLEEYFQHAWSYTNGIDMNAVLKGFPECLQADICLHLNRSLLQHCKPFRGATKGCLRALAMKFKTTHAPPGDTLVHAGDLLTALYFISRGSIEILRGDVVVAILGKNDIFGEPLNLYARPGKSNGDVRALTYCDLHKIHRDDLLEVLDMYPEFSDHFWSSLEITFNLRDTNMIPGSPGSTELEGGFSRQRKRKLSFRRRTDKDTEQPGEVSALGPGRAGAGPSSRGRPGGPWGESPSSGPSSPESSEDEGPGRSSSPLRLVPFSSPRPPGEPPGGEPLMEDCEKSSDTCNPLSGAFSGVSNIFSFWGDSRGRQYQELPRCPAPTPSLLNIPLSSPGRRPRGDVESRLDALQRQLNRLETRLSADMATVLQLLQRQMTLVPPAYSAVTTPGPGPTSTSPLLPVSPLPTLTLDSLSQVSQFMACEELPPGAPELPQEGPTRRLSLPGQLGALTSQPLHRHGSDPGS
Sequence of bovine retinal PDE-6 (Bos taurus (Bovine), UniProt P11541+P23439) (P11541 whole entry, looked up): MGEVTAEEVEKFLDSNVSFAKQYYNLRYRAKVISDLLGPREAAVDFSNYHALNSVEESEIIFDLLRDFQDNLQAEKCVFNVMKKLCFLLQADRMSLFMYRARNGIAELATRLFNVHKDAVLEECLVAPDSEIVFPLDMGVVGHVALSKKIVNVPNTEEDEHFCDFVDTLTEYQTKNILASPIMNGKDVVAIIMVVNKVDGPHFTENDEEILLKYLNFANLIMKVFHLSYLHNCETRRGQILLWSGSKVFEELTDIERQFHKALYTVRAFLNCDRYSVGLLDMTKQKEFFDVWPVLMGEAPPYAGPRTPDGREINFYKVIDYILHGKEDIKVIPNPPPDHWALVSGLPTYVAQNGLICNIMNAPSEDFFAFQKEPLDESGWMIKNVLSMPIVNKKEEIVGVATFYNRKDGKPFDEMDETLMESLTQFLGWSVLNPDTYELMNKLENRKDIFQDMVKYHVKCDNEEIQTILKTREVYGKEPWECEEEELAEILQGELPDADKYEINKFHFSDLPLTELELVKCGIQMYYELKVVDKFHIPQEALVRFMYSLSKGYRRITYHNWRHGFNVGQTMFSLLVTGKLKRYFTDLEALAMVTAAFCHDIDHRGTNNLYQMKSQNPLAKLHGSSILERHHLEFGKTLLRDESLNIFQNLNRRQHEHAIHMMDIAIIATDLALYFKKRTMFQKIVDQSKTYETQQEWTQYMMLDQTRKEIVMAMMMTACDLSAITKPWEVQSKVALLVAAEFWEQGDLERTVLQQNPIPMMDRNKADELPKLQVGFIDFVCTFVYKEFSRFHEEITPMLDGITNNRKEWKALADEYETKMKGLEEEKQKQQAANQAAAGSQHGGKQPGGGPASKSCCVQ
Sequence of bovine retinal PDE-6 (Bos taurus (Bovine), UniProt P11541+P23439) (P23439 whole entry, looked up): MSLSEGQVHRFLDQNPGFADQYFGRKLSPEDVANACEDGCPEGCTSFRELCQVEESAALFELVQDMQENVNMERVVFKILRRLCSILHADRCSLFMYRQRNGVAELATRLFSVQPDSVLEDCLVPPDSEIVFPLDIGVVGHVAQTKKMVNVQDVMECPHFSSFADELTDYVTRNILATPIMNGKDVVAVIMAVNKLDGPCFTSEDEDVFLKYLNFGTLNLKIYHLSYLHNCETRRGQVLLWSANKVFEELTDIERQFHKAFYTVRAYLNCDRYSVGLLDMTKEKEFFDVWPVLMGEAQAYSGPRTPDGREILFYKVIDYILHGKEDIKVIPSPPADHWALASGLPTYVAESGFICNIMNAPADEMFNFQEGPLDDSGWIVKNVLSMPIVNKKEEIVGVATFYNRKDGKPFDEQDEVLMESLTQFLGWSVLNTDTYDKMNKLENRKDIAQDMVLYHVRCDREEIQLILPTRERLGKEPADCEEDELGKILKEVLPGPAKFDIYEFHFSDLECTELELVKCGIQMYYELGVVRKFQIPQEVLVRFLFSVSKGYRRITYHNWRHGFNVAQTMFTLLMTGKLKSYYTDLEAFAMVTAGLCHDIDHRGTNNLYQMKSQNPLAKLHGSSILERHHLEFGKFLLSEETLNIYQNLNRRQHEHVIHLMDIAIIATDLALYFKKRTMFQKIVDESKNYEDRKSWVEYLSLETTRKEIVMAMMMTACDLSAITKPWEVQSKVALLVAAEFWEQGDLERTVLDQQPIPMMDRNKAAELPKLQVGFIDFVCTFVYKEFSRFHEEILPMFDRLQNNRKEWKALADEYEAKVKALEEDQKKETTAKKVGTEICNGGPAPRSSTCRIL
Sequence of PDE-11 (Q9HCR9 whole entry): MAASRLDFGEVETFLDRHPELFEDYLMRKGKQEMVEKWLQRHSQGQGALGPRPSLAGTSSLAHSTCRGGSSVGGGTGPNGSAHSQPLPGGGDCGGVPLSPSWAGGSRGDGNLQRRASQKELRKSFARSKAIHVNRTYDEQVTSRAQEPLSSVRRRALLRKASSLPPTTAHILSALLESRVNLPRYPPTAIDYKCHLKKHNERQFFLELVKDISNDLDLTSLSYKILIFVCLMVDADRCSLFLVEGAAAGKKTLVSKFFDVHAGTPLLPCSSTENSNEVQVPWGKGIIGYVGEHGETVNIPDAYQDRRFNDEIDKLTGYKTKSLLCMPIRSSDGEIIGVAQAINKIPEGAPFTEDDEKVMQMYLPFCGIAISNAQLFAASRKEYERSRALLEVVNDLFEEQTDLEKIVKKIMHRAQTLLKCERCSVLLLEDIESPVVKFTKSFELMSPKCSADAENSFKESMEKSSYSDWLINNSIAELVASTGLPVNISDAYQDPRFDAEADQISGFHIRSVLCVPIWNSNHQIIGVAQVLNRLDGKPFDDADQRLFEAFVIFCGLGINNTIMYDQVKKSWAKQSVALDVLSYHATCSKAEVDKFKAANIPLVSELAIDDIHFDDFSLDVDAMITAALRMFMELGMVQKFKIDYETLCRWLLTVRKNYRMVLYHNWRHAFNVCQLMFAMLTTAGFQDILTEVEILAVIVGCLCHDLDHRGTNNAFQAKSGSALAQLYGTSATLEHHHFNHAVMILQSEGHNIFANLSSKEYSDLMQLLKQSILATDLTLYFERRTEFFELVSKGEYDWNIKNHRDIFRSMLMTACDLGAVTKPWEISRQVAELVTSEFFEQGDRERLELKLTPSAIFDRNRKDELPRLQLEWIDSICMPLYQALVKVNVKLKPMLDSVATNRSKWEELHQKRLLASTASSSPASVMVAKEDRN

COc1ccc(CNc2nc(N3CCC4(CC4)C3)ncc2C(=O)N[C@H]2CC[C@H](O)CC2)cc1Cl [Compound 38, 4-((3-chloro-4-methoxybenzyl)amino)-N-(trans-4-hydroxycyclohexyl)-2-(5-azaspiro[2.4]heptan-5-yl)pyrimidine-5-formamide]
IC50 (bovine retinal PDE-6 [1]; Table 3, read-out: IC50 on PDE-6): 58 nM
IC50 (bovine retinal PDE-6 [1]; [9]): 58 nM
AUC of penis length ([2]; Table 6, 2 mL/kg): 772.8 mm × min
IC50 [3, 10]: 0.8 nM
IC50 ([3]; Table 4-1, read-out: PDE-5 (IC50 nM)): 0.8 nM
AUC of penis length [4]: 654.0 mm × min
AUC of penis length [5]: 802.7 mm × min
half-life [6, 11]: 2.11 h
bioavailability [6, 11]: 35%
half-life ([6]; SD, plasma, intravenous injection, 1 mg/kg): 3.5 h
Cl_obs ([6]; intravenous injection, 1 mg/kg): 16.8 mL/min/kg
Vss_obs ([6]; intravenous injection, 1 mg/kg): 4.47 L/kg

COc1ccc(CNc2nc(N3CC4CC4C3)ncc2C(=O)NCc2ccccc2)cc1Cl (stereo not shown) [Compound 3, N-benzyl-2-(3-azabicyclo[3.1.0]hexan-3-yl)-4-((3-chloro-4-methoxybenzyl)amino)pyrimidine-5-formamide]
selectivity on PDE-5 enzyme versus PDE-6 (in words) (bovine retinal PDE-6 [7]): higher selectivity on PDE-5 enzyme than to PDE-6
IC50 (bovine retinal PDE-6 [1]; [9]): 8.89 nM
IC50 [3, 10]: 0.91 nM
AUC of penis length [4]: 46.26 mm × min
IC50 (hERG channel): > 27800 nM
inhibitory effect on hERG channel (in words) (hERG channel; human, CHO-K1 cells stably expressing hERG channel, pH 7.4): none of Compound 3, 11 and 50 of the present invention had a significant inhibitory effect
IC50 (PDE-5A enzyme): 12.9 nM

CN1CC(=O)N2[C@H](c3ccc4c(c3)OCO4)c3[nH]c4ccccc4c3C[C@@H]2C1=O [Tadalafil]
half-life [8]: about 16 h

COc1ccc(CN=c2[nH]c(N3CCC[C@H]3CO)ncc2C(=O)NCc2ncccn2)cc1Cl [Avanafil, reference compound]
ratio PDE-6/5 (PDE-6): about 120
AUC of penis length ([2]; Table 5, 1 mL/kg): 317.9 mm × min
AUC of penis length ([2]; Table 6, 2 mL/kg): 421.2 mm × min
inhibitory effect on PDE-11 (PDE-11): no inhibitory effect on PDE-11
AUC of penis length [5]: 199.4 mm × min
IC50 (hERG channel): 14600 nM
AUC(0-inf) [6, 11]: 50 ng·h/mL
Cmax [6, 11]: 18 ng/mL
Tmax [6, 11]: 0.33 h
bioavailability [6, 11]: 4.5%
AUC(0-inf) ([6]; SD, plasma, intravenous injection, 2 mg/kg): 382 ng·h/mL
Cl_obs ([6]; intravenous injection, 2 mg/kg): 88.5 mL/min/kg
Vss_obs ([6]; intravenous injection, 2 mg/kg): 3.56 L/kg
half-life [8]: about 1.2 h
